Key:
[1] = system: glioblastoma showing high HIF-1α expression; conditions: clinical PET investigations; cited from earlier work
[2] = therapeutic dose calculated from 37 MBq per mouse; cited from earlier work
[3] = Body weight change of U87MG tumor-bearing mice; format: in vivo, BALB/c nude mouse
Protocol: (§1) The tumor-bearing mice were randomized into […] (n=7/group), and were intravenously administered with different single doses of ^64Cu-ATSM with 18.5, 37, 74, 111 and 148 MBq, and physiological saline as a control, respectively. To the remaining one group, ^64Cu-ATSM was administered intravenously at a dose of 37 MBq on days 0, 7, 21 and 28 of four times in total (37 MBq×4).
(§2) In each of the following evaluations, data were presented as mean value±standard deviation. Two-way analysis of variance was used in the significant difference test of the data, excluding the survival curve. A Log-rank test was used for the data of the survival curve. Significant levels used were all 5%.
(§3) After the start of the study, mice were weighed twice a week over time, and the size of the tumor was measured with a caliper. The tumor volume was calculated with the formula: tumor volume=length×width^2×π/6, and the tumor volume on each day was expressed as a percentage relative to the initial tumor volume on day 0.

[4] = Measurement of hematological parameters in non-tumor-bearing mice; format: in vivo, mouse
Protocol: as §2
To evaluate side effects, hematological parameters were measured using non-tumor-bearing mice (n=5/group) treated in a manner similar to the tumor-bearing mice described above.
The measurement of hematological parameters was performed by measuring concentrations of white blood cells, red blood cells and platelets using blood collected from the vein at the start point (day 0) immediately before administration of ^64Cu-ATSM and on days 2, 7, 14, 21, 28, 35, 42 and 49 after administration of ^64Cu-ATSM, with a blood analyzer (Celltac MEK-6458, manufactured by NIHON KOHDEN CORPORATION).

CD133-positive cells = conditions: Non-Patent Literature 2; cited from earlier work
[5] = system: U87MG cells from human glioblastoma; assay: Tumor growth in U87MG tumor-bearing mouse; format: in vivo, BALB/c nude mouse; conditions: for rate of tumor volume ratio to tumor volume ratio of the control group on day 39: single i.v. administration
Protocol: (§4) U87MG cells from human glioblastoma were purchased from ATCC, and utilized after growing. A U87MG tumor-bearing model was made by implanting 1×10^7 U87MG cells subcutaneously into the flanks of BALB/c nude mouse (male, 6 weeks old, weighing approximately 20 to 25 g, obtained from Japan SLC). The tumor-bearing mice were subjected to tests when the tumor diameter reached around 5 mm after transplantation of U87MG cells.
as §1, §2, §3

[6] = system: CD133-positive cells in tumors; conditions: Non-Patent Literatures 3 and 4; cited from earlier work
[7] = Internal exposure dose estimate for human
Protocol: Meanwhile, the internal exposure dose with ^64Cu-ATSM was maximum in the liver, and was 0.108 mSv/MBq. This means that when 150 MBq/kg of ^64Cu-ATSM is administered to a human weighing 60 kg, the exposure dose is 16.2 mGy/kg for the liver and 972 mSv for the whole body. When this exposure dose is applied to normal radiotherapy, it corresponds to an exposure equal to single irradiation of 1.215 Gy, which is lower than the single irradiation dose (1.8 to 2.0 Gy) of normal split irradiation in radiotherapy. Also, when 450 MBq/kg is administered to a human weighing 60 kg, the exposure dose is 48.6 mGy/kg for the liver and 2,916 mSv for the whole body. Since the tolerance dose of the liver in normal split irradiation is 30 Gy as a dose that causes side effects in 5% in 5 years, the total dose when administered a total of four times during normal radiotherapy of about 3 Gy will be 11.66 Gy, which is lower than the tolerance dose of the liver described above.
The present inventors have also reported estimates of irradiation doses of ^64Cu-ATSM for human based on in vivo distribution in normal mouse tissue (see, Yoshii Y, Furukawa T, Matsumoto H, Yoshimoto M, Kiyono Y, Zhang M R, Fujibayashi Y, and Saga T (2016) Cu-ATSM therapy targets regions with activated DNA repair and enrichment of CD133 cells in an HT-29 tumor model: Sensitization with a nucleic acid antimetabolite. Cancer Lett 376: 74-82 and Yoshii Y, Matsumoto H, Yoshimoto M, Furukawa T, Morokoshi Y, Sogawa C, Zhang M R, Wakizaka H, Yoshii H, Fujibayashi Y, and Saga T (2014) Controlled administration of penicillamine reduces radiation exposure in critical organs during ^64Cu-ATSM internal radiotherapy: a novel strategy for liver protection. PloS one 9: e86996). […] Thus, doses in the multiple administration of ^64Cu-ATSM to human according to the present invention can be determined as appropriate based on data of therapeutic effect and toxicity in mouse in the present invention. PET imaging of ^64Cu-ATSM may also be performed to monitor the irradiation dose of tumors and tissues during ^64Cu-ATSM therapy for human according to the present invention, thereby enabling theranostics of cancer.

[8] = system: U87MG cells from human glioblastoma; assay: Survival curve for 80 days of U87MG tumor-bearing mice; format: in vivo, BALB/c nude mouse
Protocol: as §4, §1, §2
After the start of the study, the mice were slaughtered at the time when the tumor volume reached the humanitarian endpoint. Survivability for 80 days was observed, and the survival rate was calculated.

[9] = Measurement of biochemical parameters (liver and renal function) in non-tumor-bearing mice; format: in vivo, mouse; conditions: any administration group; plasma, day 49
Protocol: as §2
To evaluate side effects, biochemical parameters were measured using non-tumor-bearing mice (n=5/group) treated in a manner similar to the tumor-bearing mice described above.
The measurements of biochemical parameters were performed by measuring amounts of glutamate pyruvate transaminase and alkaline phosphatase for liver function and amounts of urea nitrogen and creatinine for renal function using mouse plasma prepared from blood collected from heart on day 49 after the first administration of ^64Cu-ATSM, with a blood biochemical analyzer (FUJI DRI-CHEM 7000VZ, manufactured by FUJIFILM Corporation).

[10] = 37 MBq four-time administration (37 MBq×4)
[11] = 111 and 148 MBq single administration
[12] = 150 MBq/kg to a human weighing 60 kg
[13] = 450 MBq/kg to a human weighing 60 kg

radioactive diacetyl-bis(N4-methylthiosemicarbazone) copper complex [^64Cu-ATSM]
accumulation in tumor (PET) [1]: accumulates in highly malignant grade glioblastoma showing high HIF-1α expression | estimated irradiation doses to liver, red bone marrow and ovary in human [2]: lower than the acceptable dose | body weight loss [3, 10]: No body weight loss was observed | recovery of body weight [3, 11]: returned to normal body weight by day 14 | body weight compared to the control group ([3]; 111 and 148 MBq single administration, day 7): significantly reduced | hematological toxicity ([4]; 37 MBq four-time administration (37 MBq×4), throughout the study period): no symptoms of hematological toxicity were observed | recovery of number of white blood cells ([4]; 74, 111 and 148 MBq single administration): recovered to normal on day 21 | number of white blood cells (WBC) ([4]; 74 and 111 MBq single administration, day 2): significant reductions | number of platelets (PLT) ([4]; 111 MBq single administration, day 7): significant reduction | recovery of number of platelets [4, 11]: recovered to normal on day 14 | number of white blood cells (WBC) ([4]; 111 and 148 MBq single administration, days 7 and 14): significant reductions | recovery of number of red blood cells ([4]; 148 MBq single administration): recovered to normal on day 14 | number of red blood cells (RBC) ([4]; 148 MBq single administration, day 7): significant reduction | number of platelets (PLT) ([4]; 148 MBq single administration, days 2 and 7): significant reductions | accumulation in cells (CD133-positive cells): accumulates in CD133-positive cells | tumor growth compared to the control group ([5]; 37 MBq four times (37 MBq×4)): significantly greater inhibition effect of tumor growth | mice with tumors nearly invisible on day 39 ([5]; 37 MBq four-time administration (37 MBq×4), day 39): 6 cases among 7 mice | rate of tumor volume ratio to that of the control group on day 39 ([5]; 37 MBq four-time administration (37 MBq×4; days 0, 7, 21, 28), i.v., day 39): 0.04 | rate of tumor volume ratio to tumor volume ratio of the control group on day 39 ([5]; fifth of five printed values, 148 MBq, day 39): 0.14 | rate of tumor volume ratio to tumor volume ratio of the control group on day 39 ([5]; first of five printed values, presumably 18.5 MBq, day 39): 0.82 | rate of tumor volume ratio to tumor volume ratio of the control group on day 39 ([5]; fourth of five printed values, presumably 111 MBq, day 39): 0.14 | rate of tumor volume ratio to tumor volume ratio of the control group on day 39 ([5]; second of five printed values, presumably 37 MBq, day 39): 0.31 | dose dependence of antitumor effect ([5]; single administration 18.5-148 MBq): dose-dependent antitumor effect, showing a plateau at 111 MBq | tumor growth compared to the control group ([5]; single administration at 37, 74, 111 and 148 MBq, 39 days): significantly inhibited tumor growth | tumor growth compared to the control group ([5]; single administration of 18.5 MBq): inhibited tumor growth compared to the control group, but showed no significant difference | rate of tumor volume ratio to tumor volume ratio of the control group on day 39 ([5]; third of five printed values, presumably 74 MBq, day 39): 0.28 | effect on CD133-positive cells in tumors [6]: reduce CD133-positive cells in tumors | exposure dose for the liver [7, 12]: 16.2 mGy/kg | exposure dose for the whole body [7, 12]: 972 mSv | exposure equal to single irradiation of normal radiotherapy [7, 12]: 1.215 Gy | exposure dose for the liver [7, 13]: 48.6 mGy/kg | exposure dose for the whole body [7, 13]: 2,916 mSv | total dose when administered a total of four times ([7]; 450 MBq/kg to a human weighing 60 kg, four times): 11.66 Gy | internal exposure dose, liver (maximum organ) ([7]; liver): 0.108 mSv/MBq | survival rate compared to the control group ([8]; 37, 74, 111 and 148 MBq single administration groups and 37 MBq×4 group, 80 days): higher than that of the control group | survival time compared to the 111 MBq single administration group [8, 10]: longer survival time than the 111 MBq single administration group, but no significant difference | life-extending effect compared to the control group, single administration groups ([8]; 111 MBq single administration): significant life-extending effect | survival effect among the single administration groups ([8]; 111 MBq single administration): highest survival effect | survival time compared to the 18.5, 37, 74 and 148 MBq single administration groups ([8]; 111 MBq single administration group and 37 MBq×4 group): significantly longer survival time | alkaline phosphatase (ALP) compared to control [9]: no significant differences | blood urea nitrogen (BUN) compared to control [9]: no significant differences | creatinine (CRE) compared to control [9]: no significant differences | glutamate pyruvate transaminase (GPT) compared to control [9]: no significant differences
